We go through six compounds from ChEMBL document CHEMBL5303573, “Mapping human microbiome drug metabolism by gut bacteria and their genes” (Nature, 2019).

The conditions of series [1]: akkermansia muciniphila, 12 h, 2 µM.
Description: The drug is tested on Akkermansia muciniphila strain: ATCC BAA-835 for biotransformation. The drug concentrations were measured before and after a 12-h incubation by liquid-chromatography-coupled mass spectrometry (LC–MS)
Series [2] can be described thus: The drug is tested on Edwardsiella tarda strain: ATCC23685 for biotransformation. The drug concentrations were measured before and after a 12-h incubation by liquid-chromatography-coupled mass spectrometry (LC–MS). The note with it: 2 µM.
A short description of series [3]: The drug is tested on Bacteroides cellulosilyticus strain: DSM14838 for biotransformation. The drug concentrations were measured before and after a 12-h incubation by liquid-chromatography-coupled mass spectrometry (LC–MS). The note with it: 2 µM.
For series [4] the following is noted: bacteroides intestinalis, 12 h, 2 µM.
Description: The drug is tested on Bacteroides intestinalis strain: DSM17393 for biotransformation. The drug concentrations were measured before and after a 12-h incubation by liquid-chromatography-coupled mass spectrometry (LC–MS)
The conditions of series [5]: bacteroides stercoris, 12 h, 2 µM.
Description: The drug is tested on Bacteroides stercoris strain: ATCC43183 for biotransformation. The drug concentrations were measured before and after a 12-h incubation by liquid-chromatography-coupled mass spectrometry (LC–MS)
The conditions of series [6]: enterocloster bolteae, 12 h, 2 µM.
Description: The drug is tested on Clostridium bolteae strain: ATCCBAA-613 for biotransformation. The drug concentrations were measured before and after a 12-h incubation by liquid-chromatography-coupled mass spectrometry (LC–MS)
The conditions of series [7]: parabacteroides johnsonii, 12 h, 2 µM.
Description: The drug is tested on Parabacteroides johnsonii strain: DSM18315 for biotransformation. The drug concentrations were measured before and after a 12-h incubation by liquid-chromatography-coupled mass spectrometry (LC–MS)
Series [8] is described as follows: The drug is tested on Providencia stuartii strain: ATCC25827 for biotransformation. The drug concentrations were measured before and after a 12-h incubation by liquid-chromatography-coupled mass spectrometry (LC–MS). The following applies: 2 µM.
A short description of series [9]: The drug is tested on Bacteroides fragilis strain: HMW610 for biotransformation. The drug concentrations were measured before and after a 12-h incubation by liquid-chromatography-coupled mass spectrometry (LC–MS). The following applies: 2 µM.
Series [10] can be described thus: The drug is tested on Bacteroides xylanisolvens strain: DSM18836 for biotransformation. The drug concentrations were measured before and after a 12-h incubation by liquid-chromatography-coupled mass spectrometry (LC–MS). The note with it: 2 µM.
The nature of series [11]: The drug is tested on Coprococcus comes strain: ATCC27758 for biotransformation. The drug concentrations were measured before and after a 12-h incubation by liquid-chromatography-coupled mass spectrometry (LC–MS). The series is classed as ADME. Also on record: dose 2 uM, timepoint 0 vs 12 hours. The note with it: 2 µM.
Series [12] is described as follows: The drug is tested on Ruminococcus gnavus strain: ATCC29149 for biotransformation. The drug concentrations were measured before and after a 12-h incubation by liquid-chromatography-coupled mass spectrometry (LC–MS). The note with it: mediterraneibacter gnavus, 2 µM.
Series [13] in a line: The drug is tested on Dorea formicigenerans strain: ATCC27755 for biotransformation. The drug concentrations were measured before and after a 12-h incubation by liquid-chromatography-coupled mass spectrometry (LC–MS). The note with it: 2 µM.
Series [14] can be described thus: The drug is tested on Bacteroides pectinophilus strain: ATCC43243 for biotransformation. The drug concentrations were measured before and after a 12-h incubation by liquid-chromatography-coupled mass spectrometry (LC–MS). The note with it: 2 µM.
Series [15] is described as follows: The drug is tested on Bacteroides vulgatus strain: ATCC8482 for biotransformation. The drug concentrations were measured before and after a 12-h incubation by liquid-chromatography-coupled mass spectrometry (LC–MS). The note with it: phocaeicola vulgatus, 2 µM.
The nature of series [16]: The drug is tested on Blautia hansenii strain: DSM20583 for biotransformation. The drug concentrations were measured before and after a 12-h incubation by liquid-chromatography-coupled mass spectrometry (LC–MS). The following applies: 2 µM.
A short description of series [17]: The drug is tested on Bacteroides fragilis strain: HMW615 for biotransformation. The drug concentrations were measured before and after a 12-h incubation by liquid-chromatography-coupled mass spectrometry (LC–MS). The following applies: 2 µM.
For series [18] the following is noted: parabacteroides distasonis, 12 h, 2 µM.
Description: The drug is tested on Parabacteroides distasonis strain: ATCC8503 for biotransformation. The drug concentrations were measured before and after a 12-h incubation by liquid-chromatography-coupled mass spectrometry (LC–MS)
Series [19] in a line: The drug is tested on Bacteroides coprophilus strain: DSM18228 for biotransformation. The drug concentrations were measured before and after a 12-h incubation by liquid-chromatography-coupled mass spectrometry (LC–MS). The note with it: 2 µM.
Series [20] in a line: The drug is tested on Enterobacter cancerogenus strain: ATCC35316 for biotransformation. The drug concentrations were measured before and after a 12-h incubation by liquid-chromatography-coupled mass spectrometry (LC–MS). The following applies: 2 µM.

Regarding `CC(CN1c2ccccc2Sc2ccccc21)N(C)C` (stereo not given) [PROMETHAZINE], the “Bacterial Biotransformation” value in series [1], in [2], in [3], in [4], in series [5] and in series [6] was “Compound NOT metabolized” each time. Further, the “Bacterial Biotransformation” value in series [7], in series [8], in series [9], in [10], in [11] and in series [12] was “Compound NOT metabolized” throughout. Also, the “Bacterial Biotransformation” value in [13], in [14], in series [15], in series [16] and in series [17] was “Compound NOT metabolized” throughout.
Regarding `CC(C)c1nc(CN(C)C(=O)N[C@H](C(=O)N[C@@H](Cc2ccccc2)C[C@H](O)[C@H](Cc2ccccc2)NC(=O)OCc2cncs2)C(C)C)cs1` [RITONAVIR], the “Bacterial Biotransformation” value in series [1], in series [2], in series [3], in series [5], in series [6] and in series [7] was “Compound NOT metabolized” each time. The “Bacterial Biotransformation” value is reported as “Compound NOT metabolized” in series [8]; “Compound metabolized” in series [10]; “Compound NOT metabolized” in [12]; “Compound NOT metabolized” in [13]; “Compound NOT metabolized” in [14]; “Compound metabolized” in series [15]. In addition, the figures for the “Bacterial Biotransformation” value in series [18], in series [19] and in [16] were “Compound NOT metabolized”, “Compound NOT metabolized” and “Compound metabolized”, respectively.
As for `CN(CCOc1ccc(CC2SC(=O)NC2=O)cc1)c1ccccn1.O=C(O)/C=C\C(=O)O` (stereo not given) [ROSIGLITAZONE MALEATE], the “Bacterial Biotransformation” value in [1], in series [2], in series [3], in series [4], in [5] and in series [6] was “Compound NOT metabolized” in each case. In addition, the “Bacterial Biotransformation” value in series [7], in [8], in [10], in [11], in series [12] and in [13] was “Compound NOT metabolized” each time. Further, the “Bacterial Biotransformation” value in series [14], in series [15], in series [18], in [19] and in series [16] was “Compound NOT metabolized” in each case.
For `OC(CCN1CCCCC1)(c1ccccc1)C1CCCCC1` (stereo not given) [TRIHEXYPHENIDYL], the “Bacterial Biotransformation” value in series [2], in series [3], in series [4], in series [7], in [8] and in series [9] was “Compound NOT metabolized” throughout. The “Bacterial Biotransformation” value in series [10], in series [11], in series [12], in series [13], in [14] and in series [18] was “Compound NOT metabolized” throughout. Further, in [16], the “Bacterial Biotransformation” value is given as “Compound metabolized”.
For the compound `CCOC(=O)C1=C[C@]2(CC)CCCN3CCc4c(n1c1ccccc41)[C@@H]32` [VINPOCETINE], the “Bacterial Biotransformation” value in [2], in series [3], in series [4], in [5], in series [6] and in series [8] was “Compound NOT metabolized” throughout. The “Bacterial Biotransformation” value in series [11], in series [12], in series [13], in series [14], in series [15] and in series [19] was “Compound NOT metabolized” throughout. Also, the “Bacterial Biotransformation” value is reported as “Compound metabolized” in [16] and “Compound NOT metabolized” in series [17].
On to `CS(=O)(=O)O.O.O.O.O=C1Cc2cc(CCN3CCN(c4nsc5ccccc45)CC3)c(Cl)cc2N1` [ZIPRASIDONE MESYLATE], for which the “Bacterial Biotransformation” value in [1], in [2], in series [3], in series [4], in series [5] and in [6] was “Compound NOT metabolized” throughout. Also, the “Bacterial Biotransformation” value in [7], in [8], in [9], in [10], in [11] and in [12] was “Compound NOT metabolized” throughout. Further, the “Bacterial Biotransformation” value is recorded as “Compound NOT metabolized” in series [13]; “Compound NOT metabolized” in series [20]; “Compound NOT metabolized” in series [14]; “Compound metabolized” in [15]; “Compound metabolized” in series [18]; “Compound NOT metabolized” in series [19]. The “Bacterial Biotransformation” value in series [17] was “Compound NOT metabolized”.
